IC50, MIC and Activity data for 18 compounds are collected here from ChEMBL document CHEMBL5226286, “The application of isatin-based multicomponent-reactions in the quest for new bioactive and druglike molecules” (Eur J Med Chem, 2021).

For test [1], the system named is HeLa. In words: Antiproliferative activity against human HeLa cells. The class given is functional, cell-based.
The next test concerns MDA-MB-231. In words: cells. The class given is functional, cell-based. The following applies: Homo sapiens.
For test [2], the system named is Escherichia coli. In words: Antibacterial activity against Escherichia coli incubated for 24 to 48 hrs by agar diffusion well method. It is filed as functional. The following applies: time 24-48 hrs. A general note: In agar diffusion tests the substance spreads into inoculated agar from a disc or well.
Another test concerns Aspergillus fumigatus. Kind of test: Antifungal activity against Aspergillus fumigatus RCMB 02568. It is filed as functional.
For another test, the system named is Geotrichum candidum. Kind of test: Antifungal activity against Geotrichum candidum RCMB 05097. It is filed as functional.
Another test relates to Streptococcus pneumoniae. In words: Antibacterial activity against Streptococcus pneumoniae incubated for 24 to 48 hrs by agar diffusion well method. It is filed as functional. The following applies: time 24-48 hrs.
Test [3] has as its system Syncephalastrum racemosum. Kind of test: Antifungal activity against Syncephalastrum racemosum RCMB 05922. The class given is functional.
In a further test the test system is Candida albicans. Kind of test: Antifungal activity against Candida albicans RCMB 05036. The class given is functional.
Test [4] deals with Pseudomonas aeruginosa. Kind of test: Antibacterial activity against Pseudomonas aeruginosa incubated for 24 to 48 hrs by agar diffusion well method. The class given is functional. Particulars: time 24-48 hrs.
In test [5] the test system is Bacillus subtilis. In words: Antibacterial activity against Bacillus subtilis incubated for 24 to 48 hrs by agar diffusion well method. It is filed as functional. The following applies: time 24-48 hrs.
The subject of test [6] is Pseudomonas aeruginosa. In words: Antibacterial activity against multidrug resistant Pseudomonas aeruginosa 025. The class given is functional.
Test [7] relates to Pseudomonas aeruginosa. Kind of test: Antibacterial activity against multidrug resistant Pseudomonas aeruginosa 034. It is filed as functional.
For another test, the system named is Aspergillus niger. In words: Antifungal activity against Aspergillus niger. The class given is functional.
A further test concerns Aspergillus flavus. Kind of test: Antifungal activity against Aspergillus flavus. It is filed as functional.
Test [8] is described as follows: Antioxidant activity assessed as DPPH radical scavenging activity at 1 mg/ml relative to control. It is filed as functional.
Test [9] deals with Staphylococcus aureus. In words: Antibacterial activity against Staphylococcus aureus ATCC 25923. The class given is functional.
Another test deals with Bacillus pumilus. In words: Antibacterial activity against Bacillus pumilus PTCC 1114. The class given is functional.
Another test deals with Micrococcus luteus. Kind of test: Antibacterial activity against Micrococcus luteus PTCC 1110. The class given is functional.
In test [10] the test system is Escherichia coli. In words: Antimicrobial activity against Escherichia coli ATCC 25922. It is filed as functional.
Another test concerns Streptococcus mutans. Kind of test: Antibacterial activity against Streptococcus mutans PTCC 1601. The class given is functional.
The subject of test [11] is Staphylococcus epidermidis. In words: Antibacterial activity against Staphylococcus epidermidis ATCC 12228. It is filed as functional.
A further test has as its system Enterococcus faecalis. Kind of test: Antibacterial activity against Enterococcus faecalis ATCC 29737. It is filed as functional.
In test [12] the test system is Bacillus subtilis. Kind of test: Antibacterial activity against Bacillus subtilis ATCC 465. The class given is functional.
Test [13] concerns A549. In words: Anticancer activity against human A549 cells by MTT assay. It is filed as functional, cell-based. In general terms: Tetrazolium assays rely on reduction of a dye to a coloured formazan, in cell work by metabolically active cells.
The subject of the next test is MDA-MB-435. In words: Antiproliferative activity against human MDA-MB-435 cells. It is filed as functional, cell-based.
The subject of another test is DU-145. Kind of test: Cytotoxicity against human DU-145 cells incubated for 48 hrs by MTT assay. It is filed as functional, cell-based. The following applies: DU-145, 48 h.
Test [14] has as its system HeLa. Kind of test: Cytotoxicity against human HeLa cells incubated for 48 hrs by MTT assay. It is filed as functional, cell-based.
Test [15] has as its system A549. In words: Cytotoxicity against human A549 cells incubated for 48 hrs by MTT assay. It is filed as functional, cell-based. Particulars: A549, 48 h.
Test [16] relates to MCF7. Kind of test: Cytotoxicity against human MCF7 cells incubated for 48 hrs by MTT assay. The class given is functional, cell-based. Particulars: MCF7, 48 h.
Test [17] deals with MCF7. Kind of test: Cytotoxicity against human MCF7 cells. The class given is functional, cell-based.
Test [18] has as its system Escherichia coli. In words: Antibacterial activity against Escherichia coli by disc diffusion method. The class given is functional.
Test [19] has as its system Staphylococcus aureus. Kind of test: Antibacterial activity against Staphylococcus aureus by disc diffusion method. It is filed as functional.
Test [20] relates to Pseudomonas aeruginosa. In words: Antibacterial activity against Pseudomonas aeruginosa by disc diffusion method. It is filed as functional.
In test [21] the test system is Bacillus subtilis. In words: Antibacterial activity against Bacillus subtilis by disc diffusion method. It is filed as functional.
The next test concerns HepG2. In words: cells. It is filed as functional, cell-based. The following applies: Homo sapiens.
The next test deals with Klebsiella pneumoniae. Kind of test: Antibacterial activity against Klebsiella pneumoniae ATCC 29655. The class given is functional.
In test [22] the test system is Pseudomonas aeruginosa. In words: Antibacterial activity against Pseudomonas aeruginosa ATCC 85327. The class given is functional.

≈ marks a conversion by molar mass, not a printed value. Calls of active or inactive are those of the source.

Description for HepG2: Antiproliferative activity against human HepG2 cells
Description for MDA-MB-231: Antiproliferative activity against human MDA-MB-231 cells

Consider `CC(=O)O[C@H]1C(=O)[C@@]2(C)[C@H]([C@H](OC(=O)c3ccccc3)[C@]3(O)C[C@H](OC(=O)[C@H](O)[C@@H](NC(=O)c4ccccc4)c4ccccc4)C(C)=C1C3(C)C)[C@]1(OC(C)=O)CO[C@@H]1C[C@@H]2O` [PACLITAXEL], for which the IC50 (commonly the point on the concentration scale where inhibition reaches its midpoint) with HeLa [1] came to 0.006 µM; in the test with MDA-MB-231, 0.1 µM.
As to `CCOC(=O)N1C/C(=C\c2ccc(OC)cc2)C(=O)[C@@]2(C1)[C@H](c1ccc(OC)cc1)[C@H]1CCCN1[C@]21C(=O)Nc2ccccc21`, the minimal inhibitory concentration (MIC) – broadly, the smallest concentration in the dilution series that meets the test's criterion for growth inhibition – in the test with Escherichia coli [2] was determined as 15.6 µg/mL (≈ 25.7 µM); in the test with Aspergillus fumigatus it was 1.95 µg/mL (≈ 3.21 µM); against Geotrichum candidum, 0.49 µg/mL (≈ 0.806 µM); in the test with Streptococcus pneumoniae, 0.98 µg/mL (≈ 1.61 µM); in test [3], 0.98 µg/mL (≈ 1.61 µM); in the test on Bacillus subtilis [5] it was 0.015 µg/mL (≈ 0.0247 µM). The MIC entry in the test on Candida albicans and with Pseudomonas aeruginosa [4] was “inactive” in each case.
Regarding `C[C@H]1COc2c(N3CCN(C)CC3)c(F)cc3c(=O)c(C(=O)O)cn1c23.C[C@H]1COc2c(N3CCN(C)CC3)c(F)cc3c(=O)c(C(=O)O)cn1c23.O` [LEVOFLOXACIN], the MIC with Pseudomonas aeruginosa [6] and with Pseudomonas aeruginosa [7] was > 64 µg/mL each time.
With `CC(C)CC1NC2(C(=O)Nc3ccccc32)C(C(=O)c2ccc(F)cc2)C1c1ccccc1` (stereo not drawn), the minimal inhibitory concentration (MIC) in the test on Aspergillus niger and in the test with Aspergillus flavus was 20 µg/mL (≈ 45.2 µM) in each case.
As for `N[C@@H](CCC(=O)N[C@@H](CS)C(=O)NCC(=O)O)C(=O)O`, the Activity in test [8] was 92%.
In the case of `CCC(C)Cn1cc(CN2C(=O)C3(C(C#N)=C(N)Oc4c3ccc3[nH]c5ccccc5c43)c3ccccc32)nn1` (stereo not drawn), the concentration for half-maximal inhibition (IC50) with HeLa [1] was 14.9 µM; in the test on MDA-MB-231, 3.8 µM.
Consider `O=C1c2c(Cl)cccc2NC2(C(=O)Nc3ccccc32)N1Nc1ccccc1` (stereo not drawn), for which the MIC came out at 2 µg/mL (≈ 5.12 µM) in the test on Staphylococcus aureus [9]; 4 µg/mL (≈ 10.2 µM) against Bacillus pumilus; 8 µg/mL (≈ 20.5 µM) against Micrococcus luteus; 32 µg/mL (≈ 81.9 µM) in the test on Escherichia coli [10]; 8 µg/mL (≈ 20.5 µM) in the test on Streptococcus mutans; 4 µg/mL (≈ 10.2 µM) in test [11]. Also, the minimal inhibitory concentration (MIC) amounted to 128 µg/mL (≈ 328 µM) against Enterococcus faecalis and 8 µg/mL (≈ 20.5 µM) against Bacillus subtilis [12].
With `C#CCN1C(=O)[C@]2(c3ccccc31)N(C)C[C@@](C#N)(C(=O)c1c[nH]c3ccccc13)[C@@]21C(=O)Nc2ccccc21`, the IC50 in the test with A549 [13] is 50 µM.
On to `N#CC1=C(N)OC2=C(C(=O)c3ccccc32)C12C(=O)Nc1ccc(Cl)cc12` (stereo not drawn), for which, in the test with MDA-MB-435, the 50% inhibitory concentration (IC50) was determined as 2.1 µM.
With `COc1cc([C@@H]2c3cc4c(cc3[C@@H](O[C@@H]3O[C@@H]5CO[C@@H](C)O[C@H]5[C@H](O)[C@H]3O)[C@H]3COC(=O)[C@H]23)OCO4)cc(OC)c1O` [ETOPOSIDE], the 50% inhibitory concentration (IC50) was determined as 2.1 µM in the test on DU-145, 1 µM in the test with HeLa [14], 2.2 µM in the test on A549 [15] and 1.6 µM with MCF7 [16].
`N#CC1=C(N)OC2=C(C(=O)c3ccccc32)C12C(=O)Nc1ccc(Br)cc12` (stereo not drawn) gave a concentration for half-maximal inhibition (IC50) in the test with MDA-MB-435 of 1.8 µM.
`O=C(c1ccc(F)cc1)C1C(c2ccc(Cl)cc2)CNC12C(=O)Nc1ccccc12` (stereo not drawn): in test [8], the Activity worked out at 88.7%.
Regarding `Cc1ccc2c(c1)C1(Nc3ccccc3NC3=C1C(=O)OC3)C(=O)N2` (stereo not drawn), the IC50 with DU-145 worked out at 1.3 µM; with HeLa [14], 9.6 µM; with A549 [15], 1.5 µM; with MCF7 [16], 2.1 µM.
As for `CCOC(=O)C1=C(C(=O)OCC)C2(NC1(C(=O)OCC)C(=O)OCC)C(=O)Nc1ccccc12` (stereo not drawn), the IC50 with MCF7 [17] came out at 28 µM.
Consider `CC1(C)CC(=O)C2=C(C1)N(c1ccccn1)C(=O)C21C2=C(Nc3ccccc31)C(=O)CC(C)(C)C2` (stereo not drawn), for which the MIC in the test on Escherichia coli [18] was 62 µg/mL (≈ 133 µM); against Staphylococcus aureus [19], 125 µg/mL (≈ 267 µM); with Bacillus subtilis [21], 50 µg/mL (≈ 107 µM). The MIC entry with Pseudomonas aeruginosa [20] is “inactive”.
In the test with HepG2, `Cc1coc2c1C(=O)C(=O)c1c-2ccc2c1CCCC2(C)C` [TANSHINONE IIA] showed a half-maximal inhibitory concentration (IC50) of 23.9 µM.
Regarding `O=C1c2c(Cl)cccc2NC2(C(=O)Nc3ccc(Br)cc32)N1Nc1ccccc1` (stereo not drawn), the MIC in the test on Staphylococcus aureus [9] was 2 µg/mL (≈ 4.26 µM); in the test on Bacillus pumilus, < 2 µg/mL; in the test with Micrococcus luteus, 4 µg/mL (≈ 8.52 µM); in the test with Escherichia coli [10], < 2 µg/mL; with Klebsiella pneumoniae it was 4 µg/mL (≈ 8.52 µM); against Streptococcus mutans, < 2 µg/mL. Also, the MIC was 2 µg/mL (≈ 4.26 µM) in [11], < 2 µg/mL in the test with Enterococcus faecalis, 8 µg/mL (≈ 17 µM) against Pseudomonas aeruginosa [22] and 4 µg/mL (≈ 8.52 µM) against Bacillus subtilis [12].
In the case of `O=C1c2c(Cl)cccc2NC2(C(=O)Nc3ccc([N+](=O)[O-])cc32)N1Nc1ccccc1` (stereo not drawn), the MIC against Staphylococcus aureus [9] was 2 µg/mL (≈ 4.59 µM); in the test on Bacillus pumilus it was < 2 µg/mL; with Micrococcus luteus it was 2 µg/mL (≈ 4.59 µM); in the test on Escherichia coli [10], < 2 µg/mL; in the test with Klebsiella pneumoniae, 16 µg/mL (≈ 36.7 µM); in the test on Streptococcus mutans, 8 µg/mL (≈ 18.4 µM). The MIC in test [11] was 2 µg/mL (≈ 4.59 µM); in the test with Enterococcus faecalis, 8 µg/mL (≈ 18.4 µM); against Pseudomonas aeruginosa [22] it was 16 µg/mL (≈ 36.7 µM); against Bacillus subtilis [12], < 2 µg/mL.
